This data set concerns rodent lifetime carcinogenesis bioassay, tumor incidence TD50. The data set is described as follows: chronic cancer bioassays in animals – CPDB, compiled studies (AID 1745844).

Activity calls are given as the source filed them. How the calls were made is not given here.

In general, TD50 refers to the 50% point of the dose-response relation for the toxic effect studied. For `C1CO1`, the TD50 reads like this: (mouse, strain B6C3F1, females, inhaled, site: Harderian gland + lung, lesion: papillary cystadenoma, NOS + alveolar/bronchiolar adenoma + alveolar/bronchiolar carcinoma, dosed 102 weeks, study length 104 weeks) 45.8 mg/kg/day; (mouse, strain B6C3F1, females, inhaled, site: Harderian gland, lesion: papillary cystadenoma, NOS, dosed 102 weeks, study length 104 weeks) 142 mg/kg/day; (mouse, strain B6C3F1, females, inhaled, site: any site (literature study), lesion: several types, types named in the paper, dosed 102 weeks, study length 104 weeks) 103 mg/kg/day; (mouse, strain B6C3F1, females, inhaled, site: duodenum + Harderian gland + kidney + lung + mediastinum + mammary gland + mesenteric lymph node + multiple organs + spleen + uterus, lesion: malignant lymphoma, NOS + papillary cystadenoma, NOS + alveolar/bronchiolar adenoma + alveolar/bronchiolar carcinoma + adenocarc, dosed 102 weeks, study length 104 weeks) 39.2 mg/kg/day; (mouse, strain B6C3F1, females, inhaled, site: duodenum + kidney + mediastinum + mammary gland + mesenteric lymph node + multiple organs + spleen + uterus, lesion: malignant lymphoma, NOS + adenocarcinoma, NOS + adenosquamous carcinoma + malignant lymphoma, histiocytic type + adenoma, NOS, dosed 102 weeks, study length 104 weeks) 79.2 mg/kg/day; (mouse, strain B6C3F1, females, inhaled, site: duodenum + kidney + mediastinum + mesenteric lymph node + multiple organs + spleen + uterus, lesion: malignant lymphoma, NOS + malignant lymphoma, histiocytic type, dosed 102 weeks, study length 104 weeks) 139 mg/kg/day. The TD50 (mouse, strain B6C3F1, females, inhaled, site: liver, lesion: hepatocellular adenoma + hepatocellular carcinoma + neoplastic nodule, dosed 102 weeks, study length 104 weeks) turned out to be 149 mg/kg/day; the TD50 (mouse, strain B6C3F1, females, inhaled, site: liver, lesion: hepatocellular adenoma, dosed 102 weeks, study length 104 weeks) was found to be 75.8 mg/kg/day; the TD50 (mouse, strain B6C3F1, females, inhaled, site: lung, lesion: alveolar/bronchiolar adenoma + alveolar/bronchiolar carcinoma, dosed 102 weeks, study length 104 weeks) stood at 61.8 mg/kg/day; the TD50 (mouse, strain B6C3F1, females, inhaled, site: lung, lesion: alveolar/bronchiolar adenoma, dosed 102 weeks, study length 104 weeks) was 87.5 mg/kg/day; the TD50 (mouse, strain B6C3F1, females, inhaled, site: lung, lesion: alveolar/bronchiolar carcinoma, dosed 102 weeks, study length 104 weeks) was 200 mg/kg/day; the TD50 (mouse, strain B6C3F1, females, inhaled, site: mammary gland, lesion: adenocarcinoma, NOS + adenosquamous carcinoma, dosed 102 weeks, study length 104 weeks) was 76.3 mg/kg/day. Further, the TD50 reads like this: (mouse, strain B6C3F1, females, inhaled, site: uterus, lesion: adenocarcinoma, NOS + adenoma, NOS, dosed 102 weeks, study length 104 weeks) 250 mg/kg/day; (mouse, strain B6C3F1, females, inhaled, site: uterus, lesion: adenocarcinoma, NOS, dosed 102 weeks, study length 104 weeks) 297 mg/kg/day; (mouse, strain B6C3F1, males, inhaled, site: Harderian gland + lung, lesion: papillary cystadenoma, NOS + alveolar/bronchiolar adenoma + alveolar/bronchiolar carcinoma, dosed 102 weeks, study length 104 weeks) 51.2 mg/kg/day; (mouse, strain B6C3F1, males, inhaled, site: Harderian gland, lesion: papillary cystadenoma, NOS, dosed 102 weeks, study length 104 weeks) 110 mg/kg/day; (mouse, strain B6C3F1, males, inhaled, site: any site (literature study), lesion: several types, types named in the paper, dosed 102 weeks, study length 104 weeks) 108 mg/kg/day; (mouse, strain B6C3F1, males, inhaled, site: liver, lesion: hepatocellular adenoma + hepatocellular carcinoma + neoplastic nodule, dosed 102 weeks, study length 104 weeks) 273 mg/kg/day. Further, the TD50 (mouse, strain B6C3F1, males, inhaled, site: lung, lesion: alveolar/bronchiolar adenoma + alveolar/bronchiolar carcinoma, dosed 102 weeks, study length 104 weeks) was 65.7 mg/kg/day; the TD50 (mouse, strain B6C3F1, males, inhaled, site: lung, lesion: alveolar/bronchiolar adenoma, dosed 102 weeks, study length 104 weeks) was 181 mg/kg/day; the TD50 (mouse, strain B6C3F1, males, inhaled, site: lung, lesion: alveolar/bronchiolar carcinoma, dosed 102 weeks, study length 104 weeks) is 110 mg/kg/day; the TD50 (rat, strain Fischer 344/Mai fBR, females, inhaled, site: brain, lesion: several types, types named in the paper, dosed 76 weeks, study length 78 weeks) is 237 mg/kg/day; the TD50 (rat, strain Fischer 344/Mai fBR, females, inhaled, site: brain, lesion: several types, types named in the paper, dosed 101 weeks, study length 104 weeks) was 143 mg/kg/day; the TD50 (rat, strain Fischer 344/Mai fBR, females, inhaled, site: pituitary gland, lesion: adenoma, dosed 76 weeks, study length 78 weeks) is 29.8 mg/kg/day (inactive). The TD50 reads like this: (rat, strain Fischer 344/Mai fBR, males, inhaled, site: adrenal gland, lesion: pheochromocytoma, dosed 76 weeks, study length 78 weeks) 26.1 mg/kg/day (inactive); (rat, strain Fischer 344/Mai fBR, males, inhaled, site: brain, lesion: astrocytoma, dosed 76 weeks, study length 78 weeks) 102 mg/kg/day; (rat, strain Fischer 344/Mai fBR, males, inhaled, site: brain, lesion: several types, types named in the paper, dosed 105 weeks, study length 108 weeks) 70.7 mg/kg/day; (rat, strain Fischer 344, males, inhaled, site: brain, lesion: glioma, dosed 101 weeks, study length 104 weeks) 121 mg/kg/day; (rat, strain Fischer 344, males, inhaled, site: peritoneum, lesion: mesothelioma, dosed 101 weeks, study length 104 weeks) 30.8 mg/kg/day; (rat, strain Fischer 344, males, inhaled, site: spleen, lesion: mononuclear-cell leukemia, dosed 101 weeks, study length 104 weeks) 47.3 mg/kg/day. Besides, the TD50 was 10.6 mg/kg/day (rat, strain Sprague-Dawley, females, by gavage, site: forestomach, lesion: squamous-cell carcinoma, dosed 107 weeks, study length 150 weeks); 10 mg/kg/day (inactive) (rat, strain Sprague-Dawley, females, by gavage, site: mammary gland, lesion: adenofibroma, dosed 107 weeks, study length 150 weeks); 7.43 mg/kg/day (rat, strain Sprague-Dawley, females, by gavage, site: stomach, lesion: several types, types named in the paper, dosed 107 weeks, study length 150 weeks). In addition, the carcinogen call (rat, strain Fischer 344/Mai fBR, males, inhaled, site: pituitary gland, lesion: adenoma, dosed 76 weeks, study length 78 weeks) was “negative (inactive)” and the carcinogen call (rat, strain Fischer 344/Mai fBR, males, inhaled, site: testis, lesion: interstitial-cell tumor, dosed 76 weeks, study length 78 weeks) was “negative (inactive)”.

Turning to `ClC1=C(Cl)C2(Cl)C3C(Cl)OC(Cl)C3C1(Cl)C2(Cl)Cl` (configuration not stated), the carcinogen call by setting is: (mouse, strain B6AKF1, females, oral dosing, site: any site (literature study), lesion: several types, types named in the paper, dosed 76 weeks, study length 76 weeks) “negative (inactive)”; (mouse, strain B6AKF1, females, oral dosing, site: liver, lesion: hepatoma, dosed 76 weeks, study length 76 weeks) “negative (inactive)”; (mouse, strain B6AKF1, females, oral dosing, site: lung, lesion: adenoma, dosed 76 weeks, study length 76 weeks) “negative (inactive)”; (mouse, strain B6AKF1, males, oral dosing, site: liver, lesion: hepatoma, dosed 76 weeks, study length 76 weeks) “negative (inactive)”; (mouse, strain B6C3F1, females, oral dosing, site: liver, lesion: hepatoma, dosed 76 weeks, study length 76 weeks) “negative (inactive)”. The TD50 runs as follows: (mouse, strain B6AKF1, males, oral dosing, site: any site (literature study), lesion: several types, types named in the paper, dosed 76 weeks, study length 76 weeks) 0.136 mg/kg/day (inactive); (mouse, strain B6AKF1, males, oral dosing, site: lung, lesion: adenoma, dosed 76 weeks, study length 76 weeks) 0.146 mg/kg/day (inactive); (mouse, strain B6C3F1, females, oral dosing, site: any site (literature study), lesion: several types, types named in the paper, dosed 76 weeks, study length 76 weeks) 0.277 mg/kg/day (inactive); (mouse, strain B6C3F1, females, oral dosing, site: lung, lesion: adenoma, dosed 76 weeks, study length 76 weeks) 0.571 mg/kg/day (inactive); (mouse, strain B6C3F1, males, oral dosing, site: any site (literature study), lesion: several types, types named in the paper, dosed 76 weeks, study length 76 weeks) 0.242 mg/kg/day (inactive); (mouse, strain B6C3F1, males, oral dosing, site: liver, lesion: hepatoma, dosed 76 weeks, study length 76 weeks) 0.5 mg/kg/day (inactive). Besides, where the note is “mouse, strain B6C3F1, males, oral dosing, site: lung, lesion: adenoma, dosed 76 weeks, study length 76 weeks”, the TD50 was 0.5 mg/kg/day (inactive).

The record behind these values is PubChem BioAssay AID1745844 (Carcinogenic Potency Database (CPDB), 2022).
